From patent US6414036B1, “Composition for treatment of infections of humans and animals” (Van Beek Global/Ninkov LLC, priority 1999, dated 2002)

Tested on: microorganism culture
Test: Comparative testing: time to death of the culture after contact
Assay type: cell-based
Experimental: Isopropyl-o-cresol (95% purity) was obtained as described in Examples I and 2. A 50% solution of isopropyl-o-cresol was prepared by combining 50 grams of isopropyl-o-cresol with […] citric and propionic acid.
An antimicrobial compound containing isopropyl-o-cresol was prepared as described in Examples 3 and 4.
Each compound was administered to a culture of […]. Cell death was observed by monitoring whether or not the cells multiplied.
For example, when the microorganism culture was contacted with isopropyl-o-cresol alone the cells died within 6-8 hours after contact. When the microorganism culture was contacted with isopropyl-o-cresol combined with an organic acid to form a solution (without chemical modification of either species), the microorganisms died within 3-4 hours after exposure. When the microorganism culture was contacted with an antimicrobial compound containing isopropyl-o-cresol reacted with propionic and citric acids (50:50), the organisms died within 5-10 minutes after being contacted with the antimicrobial compound.

| SMILES | time within which the organisms died after contact [min] | time within which the cells died after contact [h] |
| --- | --- | --- |
| CC(C)c1cc(CC(=O)O)cc(O)c1OC(=O)C(O)(CC(=O)O)CC(=O)O [3-{[4-(carboxymethyl)-2-hydroxy-6-isopropylphenoxy]carbonyl}-3-hydroxypentanedioic acid] | 5 to 10 |  |
| Cc1ccc(C(C)C)cc1O [isopropyl-o-cresol, 5-isopropyl-2-methylphenol] |  | 6 to 8 |
